Data: ChEMBL document CHEMBL1123008, “Synthesis and antinociceptive activity of 4-(cyclopropylmethyl)-3,4,5,6-tetrahydro-2H-1,5-methano-1, 4-benzodiazocin-9-amine and congeners” (1985)

How the values were obtained:
Assay type in all cases: functional
Rattus norvegicus [1] = assay: In vivo narcotic antagonist activity by rat phenazocine antagonism test through subcutaneous administration
Rattus norvegicus [2] = assay: In vivo narcotic antagonist activity in rat after subcutaneous administration at 60 mg/kg & lethal at 120 mg/kg
Mus musculus [3] = assay: Maximum analgesic agonist activity obtained by mouse acetylcholine writhing test through subcutaneous administration at 75 mg/kg; conditions: sc
Mus musculus [4] = assay: Analgesic agonist activity by mouse acetylcholine writhing test through subcutaneous administration; conditions: sc
Rattus norvegicus [5] = assay: In vivo narcotic antagonist activity in rat after subcutaneous administration at 80 mg/kg; conditions: sc
Rattus norvegicus [6] = assay: Analgesic agonist activity by rat tail-flick test through oral administration; Inactive at 200 mg/kg
Rattus norvegicus [7] = assay: In vivo narcotic antagonist activity by AD50 vs. meperidine through oral administration
Rattus norvegicus [8] = assay: In vivo narcotic antagonist activity by rat phenylquinone test through oral administration
Rattus norvegicus [9] = assay: In vivo narcotic antagonist activity by rat phenylquinone test through subcutaneous administration; conditions: sc
Rattus norvegicus [10] = assay: In vivo narcotic antagonist activity by AD50 vs. morphine through subcutaneous administration
Rattus norvegicus [11] = assay: In vivo narcotic antagonist activity by AD50 vs. meperidine through subcutaneous administration
Rattus norvegicus [12] = assay: In vivo narcotic antagonist activity in rat after oral administration of the compound
Rattus norvegicus [13] = assay: In vivo narcotic antagonist activity by AD50 vs. morphine through oral administration
Rattus norvegicus [14] = assay: Analgesic agonist activity by rat tail-flick test through subcutaneous administration; Inactive at 120 mg/kg; conditions: sc
Rattus norvegicus [15] = assay: In vivo narcotic antagonist activity in rat after subcutaneous administration of the compound
Rattus norvegicus [16] = species on record: Rattus norvegicus; assay: animal or person; conditions: in Mus musculus, sc
Rattus norvegicus [17] = assay: In vivo narcotic antagonist activity in rat after subcutaneous administration at 10 mg/kg & convulsions at 20 mg/kg; conditions: sc
Rattus norvegicus [18] = assay: In vivo narcotic antagonist activity by rat phenazocine antagonism test through subcutaneous administration at 10 mg/kg
Rattus norvegicus [19] = assay: Analgesic agonist activity by rat intracarotid bradykinin writhing test through subcutaneous administration; conditions: sc
Rattus norvegicus [20] = assay: In vivo narcotic antagonist activity by rat phenazocine antagonism test through oral administration

## CCNc1ccc2c(c1)N1CCN(CC3CC3)C(C2)C1.Cl (stereo not given)
Rattus norvegicus [1]
  AD50: 4.4 mg/kg
Rattus norvegicus [2]
  Inhibition: 17%

## Nc1ccc2c(c1)N1CCN(CC3CC3)[C@@H](C2)C1
Mus musculus [3]
  inhibition in vivo at 75 mg/kg: 67%
Mus musculus [4]
  ED50: 40 mg/kg
Rattus norvegicus [5]
  inhibition in vivo at 80 mg/kg: 25%

## Nc1ccc2c(c1)N1CCN(CC3CC3)C(C2)C1 (stereo not given)
Rattus norvegicus [6]
  ED50: 1 mg/kg
Rattus norvegicus [7]
  AD50: 4.8 mg/kg
Rattus norvegicus [1]
  AD50: 1.6 mg/kg
Rattus norvegicus [8]
  ED50: 5.7 mg/kg
Rattus norvegicus [9]
  ED50: 1.8 mg/kg
Rattus norvegicus [10]
  AD50: 8.6 mg/kg
Rattus norvegicus [11]
  AD50: 3.3 mg/kg
Rattus norvegicus [12]
  AD50: 3.5 mg/kg
Rattus norvegicus [13]
  AD50: 13 mg/kg
Rattus norvegicus [14]
  ED50: 1 mg/kg

## C=CCN1CCN2CC1Cc1ccc(N)cc12.CCS(=O)(=O)O (stereo not given)
Rattus norvegicus [15]
  AD50: 1.6 mg/kg

## CCS(=O)(=O)O.c1ccc2c(c1)CC1CN2CCN1CC1CC1 (stereo not given)
Rattus norvegicus [15]
  AD50: 34 mg/kg
Rattus norvegicus [14]
  ED50: 1 mg/kg

## CN1CC[C@]23c4c5ccc(O)c4O[C@H]2[C@@H](O)C=C[C@H]3[C@H]1C5.CN1CC[C@]23c4c5ccc(O)c4O[C@H]2[C@@H](O)C=C[C@H]3[C@H]1C5.O=S(=O)(O)O
Rattus norvegicus [16]
  ED50: 0.21 mg/kg

## CCCCNc1ccc2c(c1)N1CCN(CC3CC3)C(C2)C1 (stereo not given)
Rattus norvegicus [17]
  ED50: 1 mg/kg
Rattus norvegicus [18]
  AD50: 1 mg/kg

## Oc1ccc2c(c1)N1CCN(CC3CC3)C(C2)C1 (stereo not given)
Rattus norvegicus [1]
  AD50: 0.02 mg/kg
Mus musculus [4]
  ED50: 10 mg/kg
Rattus norvegicus [19]
  ED50: 37 mg/kg
Rattus norvegicus [20]
  AD50: 3.2 mg/kg

## Nc1ccc2c(c1)N1CCN(CC3CC3)[C@H](C2)C1
Mus musculus [4]
  ED50: 1 mg/kg
Rattus norvegicus [15]
  AD50: 0.31 mg/kg

## C=CCN1CC[C@]23c4c5ccc(O)c4O[C@H]2[C@@H](O)C=C[C@H]3[C@H]1C5.Cl [NALORPHINE HYDROCHLORIDE]
Rattus norvegicus [19]
  ED50: 0.24 mg/kg
Rattus norvegicus [16]
  ED50: 2.8 mg/kg
Rattus norvegicus [15]
  AD50: 0.032 mg/kg
